Read-outs that look alike come from different tables or passages of the source. Bridge positions count the residues as written; N and C are the ends. Square brackets hold non-standard residues; d marks the D form. Peptide text beside a SMILES is read from it. Dab = NCC[C@H](N)C(=O)O; Dap = NC[C@H](N)C(=O)O

Assay [1] addresses ComD2 receptor (Streptococcus pneumoniae serotype 4, UniProt A0A0H2US84). Description: cell-based. In kind it is cell-based. The source says: Biological evaluation of cyclic dnCSPs. […] All assays will be performed in triplicates and independently three times. Serial dilutions of dnCSPs will be conducted to determine the EC50 and IC50 values of promising dnCSPs through initial screening. Data from reporter assays will be analyzed using the GraphPad Prism software. The lead dnCSPs will be assessed for their therapeutic potential using multiple in vitro assays, including attenuation of ComX-induction (reporter systems), genetic transformation, allolysis (zymogram assays), and release of PLY (hemolysis & Western blots). Lastly, the pneumococcal competence system regulates biofilm formation, which is important for the pathogenesis of […]. The ability of the dnCSPs to inhibit biofilm formation will be evaluated after 24 hr of growth on 1% BSA coated coverslips placed in flat-bottom polystyrene tissue culture plates by staining with FilmTracer LIVE/DEAD Biofilm viability kit (Invitrogen, L10316), and visualized using a confocal microscope and Z-stacked to construct 3D-images.

The target in assay [2] is ComD1 receptor (Streptococcus pneumoniae serotype 2, UniProt A0A0H2ZM50). Nature of the assay: cell-based. In kind it is cell-based. As to conditions: for maximal induction of comX compared to CSP1 / potency higher than CSP1-cyc(Orn6D10): ComD1. The source says: Biological evaluation of cyclic dnCSPs. The cyclic dnCSPs will be assessed for inhibition of competence induction using the β-gal, lux (FIG. 11) or luc (FIG. 15) reporter systems we have optimized for the analysis of a large number of signal variants in 96-well plates. All assays will be performed in triplicates and independently three times. Serial dilutions of dnCSPs will be conducted to determine the EC50 and IC50 values of promising dnCSPs through initial screening. Data from reporter assays will be analyzed using the GraphPad Prism software. The lead dnCSPs will be assessed for their therapeutic potential using multiple in vitro assays, including attenuation of ComX-induction (reporter systems), genetic transformation, allolysis (zymogram assays), and release of PLY (hemolysis & Western blots). Lastly, the pneumococcal competence system regulates biofilm formation, which is important for the pathogenesis of […]. The ability of the dnCSPs to inhibit biofilm formation will be evaluated after 24 hr of growth on 1% BSA coated coverslips placed in flat-bottom polystyrene tissue culture plates by staining with FilmTracer LIVE/DEAD Biofilm viability kit (Invitrogen, L10316), and visualized using a confocal microscope and Z-stacked to construct 3D-images.
Sequence of ComD1 receptor (A0A0H2ZM50 entry or part of it): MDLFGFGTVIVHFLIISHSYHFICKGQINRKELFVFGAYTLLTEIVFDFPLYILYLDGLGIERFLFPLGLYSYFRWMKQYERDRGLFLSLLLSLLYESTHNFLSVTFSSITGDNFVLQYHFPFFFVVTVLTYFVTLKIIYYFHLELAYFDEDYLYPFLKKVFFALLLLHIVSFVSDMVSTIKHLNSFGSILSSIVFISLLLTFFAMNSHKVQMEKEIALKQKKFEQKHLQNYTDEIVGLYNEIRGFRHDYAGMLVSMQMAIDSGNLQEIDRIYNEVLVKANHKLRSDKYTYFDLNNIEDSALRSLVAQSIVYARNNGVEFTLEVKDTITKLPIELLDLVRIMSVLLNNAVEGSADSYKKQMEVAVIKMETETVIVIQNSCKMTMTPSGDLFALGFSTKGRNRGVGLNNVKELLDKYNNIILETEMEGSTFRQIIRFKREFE

Sequence of ComD2 receptor (A0A0H2US84 entry or part of it): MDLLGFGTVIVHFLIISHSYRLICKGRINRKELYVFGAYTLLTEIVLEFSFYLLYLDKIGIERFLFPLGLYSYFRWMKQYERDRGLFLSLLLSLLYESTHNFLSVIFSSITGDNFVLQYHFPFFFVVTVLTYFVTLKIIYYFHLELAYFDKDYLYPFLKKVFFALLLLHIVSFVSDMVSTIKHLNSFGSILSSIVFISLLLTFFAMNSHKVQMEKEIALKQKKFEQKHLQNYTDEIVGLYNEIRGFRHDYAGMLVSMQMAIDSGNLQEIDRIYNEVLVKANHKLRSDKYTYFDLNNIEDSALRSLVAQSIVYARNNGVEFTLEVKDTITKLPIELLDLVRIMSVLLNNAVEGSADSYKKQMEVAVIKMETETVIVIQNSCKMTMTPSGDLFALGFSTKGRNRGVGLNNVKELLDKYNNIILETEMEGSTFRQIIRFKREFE

On to `CC[C@H](C)[C@H](NC(=O)[C@H](Cc1ccccc1)NC(=O)[C@@H]1CCC(=O)NCC[C@H](NC(=O)[C@H](CO)NC(=O)[C@H](CC(C)C)NC(=O)[C@H](CCCNC(=N)N)NC(=O)[C@H](CCSC)NC(=O)[C@@H](N)CCC(=O)O)C(=O)N[C@@H](Cc2ccccc2)C(=O)N[C@@H](Cc2ccccc2)C(=O)N[C@@H](CCCNC(=N)N)C(=O)N1)C(=O)N[C@@H](CC(C)C)C(=O)N[C@@H](CCC(N)=O)C(=O)N[C@@H](CCCNC(=N)N)C(=O)N[C@@H](CCCCN)C(=O)N[C@@H](CCCCN)C(=O)O` [CSP1-cyc(Dab6E10)] (H-EMRLS[Dab]FFREFILQRKK-OH; lactam 6-10; N-terminus and C-terminus assumed), for which a half-maximal effect in assay [1] (EC50) was put at 31.4 nM. In assay [2], it took 12.2 nM to reach a half-maximal effect (EC50), the “maximal induction of comX compared to CSP1” value is 100% and the “potency higher than CSP1-cyc(Orn6D10)” value was 10 fold.
For the compound `CC[C@H](C)[C@H](NC(=O)[C@H](Cc1ccccc1)NC(=O)[C@@H]1CCC(=O)NC[C@H](NC(=O)[C@H](CO)NC(=O)[C@H](CC(C)C)NC(=O)[C@H](CCCNC(=N)N)NC(=O)[C@H](CCSC)NC(=O)[C@@H](N)CCC(=O)O)C(=O)N[C@@H](Cc2ccccc2)C(=O)N[C@@H](Cc2ccccc2)C(=O)N[C@@H](CCCNC(=N)N)C(=O)N1)C(=O)N[C@@H](CC(C)C)C(=O)N[C@@H](CCC(N)=O)C(=O)N[C@@H](CCCNC(=N)N)C(=O)N[C@@H](CCCCN)C(=O)N[C@@H](CCCCN)C(=O)O` [CSP1-cyc(Dap6E10)] (H-EMRLS[Dap]FFREFILQRKK-OH; lactam 6-10; N-terminus and C-terminus assumed), in assay [1], the concentration giving a half-maximal response (EC50) stood at 13.1 nM and the “potency against ComD2 receptor higher than CSP2” value is “about 4 fold”. Besides, in assay [2], the 50% effective concentration (EC50) is 14.6 nM, the “maximal induction of comX compared to CSP1” value is listed as 100% and the “potency higher than CSP1-cyc(Orn6D10)” value turned out to be 10 fold.
For the compound `CC[C@H](C)[C@@H]1NC(=O)[C@H](Cc2ccccc2)NC(=O)[C@@H](NC(=O)[C@H](CCCNC(=N)N)NC(=O)[C@H](Cc2ccccc2)NC(=O)[C@H](Cc2ccccc2)NC(=O)[C@H](CCCCN)NC(=O)[C@H](CO)NC(=O)[C@H](CC(C)C)NC(=O)[C@H](CCCNC(=N)N)NC(=O)[C@H](CCSC)NC(=O)[C@@H](N)CCC(=O)O)CCCCNC(=O)C[C@@H](C(=O)N[C@@H](CCCNC(=N)N)C(=O)N[C@@H](CCCCN)C(=O)N[C@@H](CCCCN)C(=O)O)NC(=O)[C@H](CC(C)C)NC1=O` [CSP1-cyc(K10D14)] (H-EMRLSKFFRKFILDRKK-OH; lactam 10-14; N-terminus and C-terminus assumed), the concentration for a half-maximal effect (EC50) in assay [2] was determined as 257 nM. This lies in the sub-micromolar range.
On to CSP1-E1AK6A (AMRLSAFFRDFILQRKK), for which, in assay [2], the “inhibition of ComD receptors” value is reported as “could only strongly inhibit the ComD1 receptor”.
Take `CC[C@H](C)[C@H](NC(=O)[C@H](Cc1ccccc1)NC(=O)[C@@H]1CCC(=O)NC[C@H](NC(=O)[C@H](CO)NC(=O)[C@H](CC(C)C)NC(=O)[C@H](CCCNC(=N)N)NC(=O)[C@H](CCSC)NC(=O)[C@H](C)N)C(=O)N[C@@H](Cc2ccccc2)C(=O)N[C@@H](Cc2ccccc2)C(=O)N[C@@H](CCCNC(=N)N)C(=O)N1)C(=O)N[C@@H](CC(C)C)C(=O)N[C@@H](CCC(N)=O)C(=O)N[C@@H](CCCNC(=N)N)C(=O)O` [CSP1-E1A-des-K16K17-cyc(Dap6E10), A-M-R-L-S-(Dap-F-F-R-E)-F-I-L-Q-R] (H-AMRLS[Dap]FFREFILQR-OH; lactam 6-10; N-terminus and C-terminus assumed): in assay [1], 67.2 nM corresponded to half-maximal inhibition (IC50) and the “higher inhibition potency against the ComD2 receptor compared to parent CSP1-E1A-cyc(Dap6E10)” value came to 3 fold. Moreover, in assay [2], the IC50 was determined as 7.57 nM and the “higher inhibition potency against the ComD1 receptor compared to parent CSP1-E1A-cyc(Dap6E10)” value was around 10 fold.
On to `CC[C@H](C)[C@H](NC(=O)[C@H](Cc1ccccc1)NC(=O)[C@@H]1CC(=O)NCCCC[C@H](NC(=O)[C@H](CO)NC(=O)[C@H](CC(C)C)NC(=O)[C@H](CCCNC(=N)N)NC(=O)[C@H](CCSC)NC(=O)[C@@H](N)CCC(=O)O)C(=O)N[C@@H](Cc2ccccc2)C(=O)N[C@@H](Cc2ccccc2)C(=O)N[C@@H](CCCNC(=N)N)C(=O)N1)C(=O)N[C@@H](CC(C)C)C(=O)N[C@@H](CCC(N)=O)C(=O)N[C@@H](CCCNC(=N)N)C(=O)N[C@@H](CCCCN)C(=O)N[C@@H](CCCCN)C(=O)O` [CSP1-cyc(K6D10)], for which the EC50 in assay [1] was above 1000 nM. In assay [2], a half-maximal effect (EC50) was put at 258 nM and the “maximal induction of comX compared to CSP1” value came out at 44%.
On the same counts, the results for `CC[C@H](C)[C@H](NC(=O)[C@H](Cc1ccccc1)NC(=O)[C@@H]1CC(=O)NCCC[C@H](NC(=O)[C@H](CO)NC(=O)[C@H](CC(C)C)NC(=O)[C@H](CCCNC(=N)N)NC(=O)[C@H](CCSC)NC(=O)[C@@H](N)CCC(=O)O)C(=O)N[C@@H](Cc2ccccc2)C(=O)N[C@@H](Cc2ccccc2)C(=O)N[C@@H](CCCNC(=N)N)C(=O)N1)C(=O)N[C@@H](CC(C)C)C(=O)N[C@@H](CCC(N)=O)C(=O)N[C@@H](CCCNC(=N)N)C(=O)N[C@@H](CCCCN)C(=O)N[C@@H](CCCCN)C(=O)O` [CSP1-cyc(Orn6D10)] are above 1000 nM, 193 nM and 100%.
Consider `CC[C@H](C)[C@H](NC(=O)[C@H](Cc1ccccc1)NC(=O)[C@@H]1CCC(=O)NCC[C@H](NC(=O)[C@H](CO)NC(=O)[C@H](CC(C)C)NC(=O)[C@H](CCCNC(=N)N)NC(=O)[C@H](CCSC)NC(=O)[C@H](C)N)C(=O)N[C@@H](Cc2ccccc2)C(=O)N[C@@H](Cc2ccccc2)C(=O)N[C@@H](CCCNC(=N)N)C(=O)N1)C(=O)N[C@@H](CC(C)C)C(=O)N[C@@H](CCC(N)=O)C(=O)N[C@@H](CCCNC(=N)N)C(=O)N[C@@H](CCCCN)C(=O)N[C@@H](CCCCN)C(=O)O` [CSP1-E1A-cyc(Dab6E10), A-M-R-L-S-(Dab-F-F-R-E)-F-I-L-Q-R-K-K] (H-AMRLS[Dab]FFREFILQRKK-OH; lactam 6-10; N-terminus and C-terminus assumed), for which the IC50 was above 1000 nM in assay [1]; above 1000 nM in assay [1] (read-out: ComD2 IC50 (95% CI), Table 2, β-gal reporter, IC50 values in italic font); 173 nM in assay [2].
Take `CC[C@H](C)[C@@H]1NC(=O)[C@H](Cc2ccccc2)NC(=O)[C@H](CC(=O)O)NC(=O)[C@H](CCCNC(=N)N)NC(=O)[C@H](Cc2ccccc2)NC(=O)[C@H](Cc2ccccc2)NC(=O)[C@@H](NC(=O)[C@H](CO)NC(=O)[C@H](CC(C)C)NC(=O)[C@H](CCCNC(=N)N)NC(=O)[C@H](CCSC)NC(=O)[C@@H](N)CCC(=O)O)CCCCNC(=O)C[C@@H](C(=O)N[C@@H](CCCNC(=N)N)C(=O)N[C@@H](CCCCN)C(=O)N[C@@H](CCCCN)C(=O)O)NC(=O)[C@H](CC(C)C)NC1=O` [CSP1-cyc(K6D14)] (H-EMRLSKFFRDFILDRKK-OH; lactam 6-14; N-terminus and C-terminus assumed): the concentration giving a half-maximal response (EC50) in assay [1] and in assay [2] was above 1000 nM throughout.
Regarding `CC[C@H](C)[C@H](NC(=O)[C@H](Cc1ccccc1)NC(=O)[C@H](CC(=O)O)NC(=O)[C@@H]1CC(=O)NCCCC[C@H](NC(=O)[C@H](CO)NC(=O)[C@H](CC(C)C)NC(=O)[C@H](CCCNC(=N)N)NC(=O)[C@H](CCSC)NC(=O)[C@@H](N)CCC(=O)O)C(=O)N[C@@H](Cc2ccccc2)C(=O)N[C@@H](Cc2ccccc2)C(=O)N1)C(=O)N[C@@H](CC(C)C)C(=O)N[C@@H](CCC(N)=O)C(=O)N[C@@H](CCCNC(=N)N)C(=O)N[C@@H](CCCCN)C(=O)N[C@@H](CCCCN)C(=O)O` [CSP1-cyc(K6D9)] (H-EMRLSKFFDDFILQRKK-OH; lactam 6-9; N-terminus and C-terminus assumed), the figures for the EC50 in assay [1] and in assay [2] were 528 nM and above 1000 nM, respectively.
